In PubChem BioAssay (NCI):
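Grown in 96-well plates, cells were treated for 48 hours with each compound at five concentrations. Insufficient inhibition: endpoint recorded as highest concentration tested. GI50 is the concentration that inhibits growth by half. TGI is the concentration that stops growth completely.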 Where a SMILES comes first, the peptide text is derived from it. The star is where a group is joined. Boc = CC(C)(C)OC(=O)*; OBn = c1ccc(CO*)cc1; Bn = c1ccc(C*)cc1

Experiments:
Experiment in all cases: growth of human tumour cells (NCI), 48 h
[1] = tested on: A498 renal
[2] = tested on: TK-10 renal
[3] = tested on: SF-295 CNS
[4] = tested on: UACC-257 melanoma
[5] = tested on: CCRF-CEM leukemia
[6] = tested on: HL-60(TB) leukemia
[7] = tested on: CAKI-1 renal
[8] = tested on: MDA-N
[9] = tested on: SN12C renal
[10] = tested on: SK-OV-3 ovarian
[11] = tested on: HT29 colon

SMILES | TGI [1] [µM] | TGI [2] [µM] | TGI [3] [µM] | TGI [4] [µM] | TGI [5] [µM] | TGI [6] [µM] | TGI [7] [µM] | TGI [8] [µM] | TGI [9] [µM] | TGI [10] [µM] | TGI [11] [µM] | GI50 [9] [µM] | GI50 [1] [µM] | GI50 [2] [µM] | GI50 [3] [µM] | GI50 [4] [µM] | GI50 [5] [µM] | GI50 [11] [µM] | GI50 [7] [µM] | GI50 [10] [µM]
CS(=O)(=O)c1ccc(C2=C(c3ccccc3)C(=O)OC2)cc1 | > 100 | > 100 | > 100 | > 100 | > 100 | > 100 | > 100 | > 100 | > 100 | > 100 | – | – | – | – | – | – | – | – | – | –
CCCc1c(OC)c(O)c2c(=O)cc(OC)c3c4c(OC)cc(=O)c5c(O)c(OC)c(CCC)c(c1c23)c54 | 31 | > 100 | 31.6 | > 100 | 50.1 | – | 16.5 | 22.7 | 15.3 | 76.5 | 17.9 | – | – | – | – | – | – | – | – | –
O=C1CCCn2c3ccccc3c3ccnc1c32 | 32.2 | – | > 100 | > 56.1 | > 100 | 23 | > 46.6 | – | > 100 | > 100 | > 56.1 | – | – | – | – | – | – | – | – | –
Nc1nc(-c2ccccc2)cc(-c2ccc(F)cc2)c1-c1ccc(Cl)cc1 | – | > 100 | > 100 | > 100 | > 100 | > 100 | > 100 | > 100 | > 100 | > 100 | > 100 | – | – | – | – | – | – | – | – | –
CSCC[C@@H](NC(=O)[C@H](CC(C)C)NC(=O)C(Cc1cnc[nH]1)NC(=O)CNC(=O)[C@@H](NC(=O)[C@H](C)NC(=O)[C@H](Cc1cn(C=O)c2ccccc12)NC(=O)[C@H](CCC(N)=O)NC(=O)[C@@H](N)CC(N)=O)C(C)C)C(N)=O (stereo partly drawn) | > 100 | – | > 100 | > 100 | > 100 | > 100 | – | – | > 100 | > 100 | > 100 | – | – | – | – | – | – | – | – | –
COc1cc(/C=C/C(=O)OC[C@]23O[C@H]2[C@@H](OC2OC(C)C(O)C(O)C2O)C2C=CO[C@@H](OC4OC(CO)C(O)C(O)C4O)C23)ccc1O (stereo partly drawn) | – | > 100 | > 100 | – | – | > 100 | – | > 100 | > 100 | > 100 | > 100 | – | – | – | – | – | – | – | – | –
N.N.NCCCCN.O=C([O-])CCl.O=C([O-])CCl.O=C([O-])CCl.O=C([O-])CCl.[Pt+4].[Pt+4] | > 50 | > 50 | > 50 | > 50 | > 50 | > 50 | – | – | 49.8 | > 50 | > 50 | 9.99 | – | – | – | – | – | – | – | –
O=C(CSCC(=O)N/N=C/c1ccc(F)cc1)N/N=C/c1ccc(F)cc1 | > 100 | > 100 | – | > 100 | – | > 100 | – | – | > 100 | > 100 | > 100 | – | – | – | – | – | – | – | – | –
O=C1OS2(OC(=O)c3cccc4cccc2c34)c2ccccc21 (stereo not drawn) | > 100 | > 100 | > 100 | > 100 | > 100 | > 100 | > 100 | > 100 | > 100 | – | > 100 | – | – | – | – | – | – | – | – | –
c1ccc(C[P+]2(c3ccccc3)CCCCC2)cc1 | > 100 | > 100 | > 100 | > 100 | > 100 | > 100 | – | – | > 100 | > 100 | > 100 | – | – | – | – | – | – | – | – | –
C=CCn1c(-c2ccc(N=NNc3ccc(-c4n[nH]c(=S)n4CC=C)cc3)cc2)n[nH]c1=S | > 100 | > 100 | 15.7 | > 100 | > 100 | – | 19.1 | – | > 100 | 25.3 | – | – | – | – | – | – | – | – | – | –
C(=C/c1ccc2nc(-c3ccc(/C=C/C=N/NC4=NCCCN4)cc3)cn2c1)/C=N/NC1=NCCCN1 | > 100 | > 100 | > 100 | > 100 | > 100 | – | 30.2 | > 100 | > 100 | > 100 | – | – | – | – | – | – | – | – | – | –
COC12OC3(C4OC41)C(C(=O)O[C@H]3CO[Si](C)(C)C(C)(C)C)C2S(=O)(=O)c1ccccc1 (stereo partly drawn) | – | > 100 | > 100 | > 12.6 | 4.04 | 7.66 | 3.33 | – | > 9.26 | > 30.4 | – | – | – | – | – | – | – | – | – | –
CN(C)CCNc1ccccn1 | > 100 | > 100 | > 100 | > 100 | – | > 100 | > 100 | > 100 | > 100 | – | > 100 | – | – | – | – | – | – | – | – | –
CC(C)CC(NC(=O)C(CCC(=O)OCc1ccccc1)NC(=O)OC(C)(C)C)C(=O)NC(COCc1ccccc1)C(=O)NC(Cc1ccccc1)C(=O)O (stereo not drawn) (Boc-E(OBn)LS(Bn)F-OH; configuration not given here) | > 100 | > 100 | – | > 100 | – | > 100 | – | > 100 | > 100 | – | > 100 | – | – | – | – | – | – | – | – | –
O=c1[nH]c(=O)n(COCCO)cc1-c1ccccc1 | – | > 100 | > 100 | > 100 | > 100 | > 100 | > 100 | > 100 | > 100 | > 100 | > 100 | – | – | – | – | – | – | – | – | –
Clc1ccc2nc3c(c(-c4ccccc4)nn3-c3ccccc3)c(-c3ccccc3)c2c1 | – | > 100 | > 100 | – | > 100 | > 100 | – | > 100 | > 100 | > 100 | > 100 | – | – | – | – | – | – | – | – | –
O=C(/C=C/c1ccco1)c1ccc(Nc2ccnc3cc(Cl)ccc23)cc1 | > 100 | > 100 | > 100 | > 100 | > 100 | – | > 100 | – | > 100 | > 100 | > 100 | > 100 | 1.29 | > 100 | > 100 | 76 | 6.56 | 3.09 | > 100 | > 100
CCOC(=O)C(NC(=O)Nc1ccccc1)(Nc1cccc(Cl)c1)C(F)(F)F (stereo not drawn) | > 100 | > 100 | – | > 100 | > 100 | > 100 | > 100 | > 100 | > 100 | > 100 | > 100 | – | – | – | – | – | – | – | – | –
Oc1cccc(-c2cc(=S)ss2)c1 | – | 33.1 | 29.5 | 28.4 | – | 48.5 | 45.7 | – | 36.5 | 37.7 | 55.3 | – | – | – | – | – | – | – | – | –
COc1cc(CNc2nc3cc(C(F)(F)F)ccc3nc2C(=O)O)cc(OC)c1OC | 60.7 | 39.7 | 43.3 | 63.6 | – | 15.4 | 78.9 | 45.2 | 30.2 | > 100 | – | – | – | – | – | – | – | – | – | –
COC(=O)c1ccc2c(c1)CC1(C2)Cc2ccc3c(c2C1)CCC3 (stereo not drawn) | – | > 100 | 66.4 | 53.8 | > 100 | 39.7 | – | 17.8 | > 100 | 51.8 | 55.4 | – | – | – | – | – | – | – | – | –
